In patent publication US12616665B2, “Neutrophil-to-lymphocyte ratio decreasing agent” (THERABIOPHARMA INC., priority 2020, dated 2026):

Test system: neutrophil-to-lymphocyte ratio in blood
Experiment: Neutrophil-to-lymphocyte ratio in venous blood after four weeks of curcumin-containing capsule intake
Format: in vivo, human
Description: Each of 20 men and women of 60 years old or older was caused to take a curcumin-containing capsule (containing 90 mg of curcumin per capsule) twice a day in the morning and the evening for four weeks (daily dose 180 mg). Venous blood was collected at start and end of administration, and a neutrophil-to-lymphocyte ratio was measured.
As a result, in a non-parametric test (Wilcoxon code rank test), the neutrophil-to-lymphocyte ratio at start of administration was 1.7 (1.3, 2.1), whereas the neutrophil-to-lymphocyte ratio at end of administration was 1.4 (1.2, 1.7).

In the case of `COc1cc(/C=C/C(=O)/C=C(O)/C=C/c2ccc(O)c(OC)c2)ccc1O` [curcumin], the “neutrophil-to-lymphocyte ratio at end of administration” value (after four weeks, 90 mg curcumin capsule twice a day (daily dose 180 mg), oral, 20 men and women of 60 years old or older, venous blood) is reported as 1.4 (1.2, 1.7), the “neutrophil-to-lymphocyte ratio at start of administration” value (baseline, 20 men and women of 60 years old or older, venous blood, spread in brackets not defined) is reported as 1.7 (1.3, 2.1) and the “change of neutrophil-to-lymphocyte ratio, start vs end of administration” value (four weeks, daily dose 180 mg, non-parametric test (Wilcoxon code rank test)) is reported as “significantly decreased”.
